Measured values: article PMC10235067, “Increased renal elimination of endogenous and synthetic pyrimidine nucleosides in concentrative nucleoside transporter 1 deficient mice” (Nature Communications, 2023)

System: CNT1
Method: Linearity was established for analytes over the concentration ranges observed and the lower limit of quantification of the LC–MS/MS assay was approximately 0.1 ng/ml for each analyte (Fig. S2).
Standard solutions of all nucleotide targets were serially diluted to generate calibration solutions at concentrations of 0.0, 0.0001, 0.001, 0.01, 0.1, 1.0, and 10 µg/ml. Urine samples were prepared by adding 20 µL of urine solution to 80 µL of 50:50 H2O:MeOH containing internal standard, vortexing and centrifuging at 20,000 × g; then, 50 µL aliquots were placed into glass vials, dried in a SpeedVac and reconstituted in 5% MeOH with 0.1% formic acid for injection.
Samples were quantified using a heated electrospray ionization source (HESI) on a Thermo Scientific TQS Quantiva triple quadrupole mass spectrometer, and separation was achieved using a Thermo Scientific Ultimate 3000 HPLC equipped with an Agilent 120 SB-C18 reversed-phase column (2 × 100 mm, 2.7 µm particle size) maintained at 40 °C. […] For all experiments, the capillary voltage was set to 4.5 kV with a capillary temperature of 350 °C, a vaporizer temperature of 100 °C, a sheath gas flow of 12, an auxiliary gas flow of 13, and a 1.6 sweep gas. For selected reaction monitoring (SRM) mode, Q1 and Q3 were set to 0.7 full width at half maximum (FWHM) resolution, a cycle time of 0.8 s, and a CID gas pressure of 1.5 mTorr.

concentration in urine, Slc28a1+/+ vs Slc28a1-/- (12 h starvation)	fold increase of content in urine of Slc28a1-/- mice (Slc28a1-/- vs Slc28a1+/+, urine collected over 12 h starvation, 8-week-old mice, n = 6) [fold]	Structure (SMILES)
not significantly different		Nc1nc2c(ncn2[C@@H]2O[C@H](CO)[C@@H](O)[C@H]2O)c(=O)[nH]1 [Guanosine]
	7.5	Cc1cn([C@H]2C[C@H](O)[C@@H](CO)O2)c(=O)[nH]c1=O [Thymidine]
